In one test the test system is breast cancer cells. The following applies: cited from earlier work.
In test [1] the test system is BON-1 cells. As to the kind of experiment: Cell viability (MTT) assay, BON-1 cells. Format: cell-based, human. The following applies: 72 hrs. The method, then: (§1) TQ activity was evaluated in two human pancreatic neuroendocrine tumor (pNEN) cell lines: (1) BON-1 cells, established from a lymph node metastasis of a pNET (Evers et al. 1991, Gastroenterology. 101, 303-311); and (2) QGP-1 cells, established from primary somatostatin producing pNET (Kaku et al. 1980, Gan. 71, 596-601). […] See Vandamme et al. 2015, J. Mol. Endocrinol. 54, 137-147.
(§2) About 5000 Bon-1 or 5000 QGP-1 cells were grown in 96-well plates overnight. On the following day, the cells were exposed to the indicated concentrations of TQ for 72 hrs. At the end of the treatment period, a standard MTT assay was performed to measure cell proliferation and conversely, in the presence of TQ, the reduction in cell viability The values represent 6 replicates per dose from three independent experiments.

For another test, the system named is QGP-1 cells. As to the kind of experiment: Cell viability (MTT) assay, QGP-1 cells. The settings on record: 72 hrs. Type of test: cell-based, human. The protocol:
as §1, §2

For test [2], the system named is pancreatic ductal adenocarcinoma tumor models. As to the kind of experiment: TQ inhibitory action in pancreatic ductal adenocarcinoma tumor models. Type of test: cell-based.
The next test has as its system Bon-1 (or QGP-1) cells. The test can be described thus: Colony formation assay. Format: cell-based, human. The following applies: 2.5 uM or 12.5 uM TQ 72 hrs, then 12 days drug free; p<0.01. The protocol: About 500 Bon-1 (or QGP-1) cells were seeded in 6-well plates in triplicate and allowed to attach overnight. On the following day, cells were treated with 2.5 uM or 12.5 uM TQ (or control) for 72 hrs. After treatment, cells were replenished with drug free media for 12 days and subjected to 0.5% crystal violet staining. Bar diagrams (FIG. 1B) show the number of colonies at the indicated TQ concentration.

Test [3] has as its system BON-1 cells. As to the kind of experiment: Annexin V FITC apoptosis analysis. Type of test: cell-based, human. The settings on record: 3 uM or 6 uM TQ, 72 h. The method, then: (§3) About 30,000 BON-1 cells were grown in triplicate in 6 well plates overnight. The next day cells were exposed to 3 uM or 6 uM TQ (or control) for 72 h followed by Annexin V FITC apoptosis analysis. See, e.g., Demchenko 2012, Exp. Oncol. 34, 263-268. In addition, BON-1 cells grown and treated under similar experimental conditions were evaluated by Western blotting for the presence of cleaved PARP-a marker of apoptosis. See, e.g., Chaitanya et al. 2010, Cell Comm. Signal. 8, 31.

In test [4] the test system is PARP cleavage in BON-1 cells. The test can be described thus: Western blotting for cleaved PARP. Format: cell-based, human. The settings on record: 3 uM or 6 uM TQ, 72 h. The protocol: as §3
A general note: In western blotting, separated proteins are transferred to a membrane and probed.

Test [5] deals with patients with refractory poorly differentiated NEC. The following applies: cited from earlier work.
Test [6] has as its system patients with refractory high grade (G3) NENs. The following applies: cited from earlier work.
The next test relates to refractory NEC patients. The settings on record: high-grade NEC group of 21 patients; cited from earlier work.

Take `CCCCCCCCCOc1c(CCCC(=O)O)cc(-c2ccc(C(=O)O)cc2)cc1CCCC(=O)O` [CNBDA]: in the test on breast cancer cells, the “inhibitory effects against breast cancer cells” value was “significant inhibitory effects”.
In the case of `CC1=CC(=O)C(C(C)C)=CC1=O` [TQ, Thymoquinone], the “IC50 (cell viability)” value in the test on BON-1 cells [1] and in the test on QGP-1 cells was “low uM range” each time. In [2], the IC50 result is “high uM range”. Also, in the test with Bon-1 (or QGP-1) cells, the “long term growth in colony formation assay” value is on record as “suppressed long term growth”. Besides, the “apoptosis (Annexin V-FITC staining, flow cytometry)” value in the test with BON-1 cells [3] was “induced significant apoptosis”. In [4], the “PARP cleavage product (western blot)” value is on record as “dose dependent accumulation of the PARP cleavage product”.
Consider nivolumab: anti-PD-1 antibody, for which the ORR in test [5] (at 8 weeks) is 7.2%. In test [5], the OS was 7.2 months and the PFS is given as 1.8 months.
With pembrolizumab: anti-PD1 antibody, the “objective response rate (ORR)” value in test [6] was 5%.

B1: spartalizumab: single agent ICPI in a phase II study in refractory NEC (antibody, chains of the INN, looked up, V domains shown)
VH: EVQLVQSGAEVKKPGESLRISCKGSGYTFTTYWMHWVRQATGQGLEWMGNIYPGTGGSNFDEKFKNRVTITADKSTSTAYMELSSLRSEDTAVYYCTRWTTGTGAYWGQGTTVTVSS
VL: EIVLTQSPATLSLSPGERATLSCKSSQSLLDSGNQKNFLTWYQQKPGQAPRLLIYWASTRESGVPSRFSGSGSGTDFTFTISSLEAEDAATYYCQNDYSYPYTFGQGTKVEIK
B1: in the test on refractory NEC patients, the ORR is listed as 4.8%, the OS is reported as 6.8 months and the PFS is 1.8 months.

The values are drawn from US20250161236A1, “THYMOQUINONE AND BLACK SEED COMPOSITIONS FOR TREATING NEUROENDOCRINE CANCER IN COMBINATION WITH IMMUNOTHERAPY” (Novatek Pharmaceuticals, Inc., priority 2023, published 2025).
